Legend:
Type in all cases: cell-based, human
UACC-257 = experiment: NCI SRB cytotoxicity, Melanoma UACC-257; conditions: UACC-257, Melanoma, 48 h
Experimental: (§1) Biological Activity: In vitro biological activity studies were carried out at National Cancer Institute (U.S.A.).
(§2) For each compound, dose response curves for each cell line were measured at a minimum of five concentrations at 10 fold dilutions. A protocol of 48 h continuous drug exposure was used, and a sulforhodamine B (SRB) protein assay was used to estimate cell viability or growth. The concentration causing 50% cell growth inhibition (GI50), total cell growth inhibition (TGI, 0% growth) and 50% cell death (LC50, −50% growth) compared with the control was calculated.

KM-12 = experiment: NCI SRB cytotoxicity, Colon KM-12; conditions: KM-12, Colon, 48 h
Experimental: as §1, §2

MOLT-4 = experiment: NCI SRB cytotoxicity, Leukemia MOLT-4; conditions: MOLT-4, Leukemia, 48 h
Experimental: as §1, §2

A549/ATCC = experiment: NCI SRB cytotoxicity, Non-small-cell lung A549/ATCC; conditions: 48 h
Experimental: as §1, §2

UACC-62 = experiment: NCI SRB cytotoxicity, Melanoma UACC-62; conditions: UACC-62, Melanoma, 48 h
Experimental: as §1, §2

OVCAR-4 = experiment: NCI SRB cytotoxicity, Ovarian OVCAR-4; conditions: OVCAR-4, Ovarian, 48 h
Experimental: as §1, §2

UO-31 = experiment: NCI SRB cytotoxicity, Renal UO-31; conditions: UO-31, Renal, 48 h
Experimental: as §2

OVCAR-8 = experiment: NCI SRB cytotoxicity, Ovarian OVCAR-8; conditions: OVCAR-8, Ovarian, 48 h
Experimental: as §1, §2

OVCAR-5 = experiment: NCI SRB cytotoxicity, Ovarian OVCAR-5; conditions: OVCAR-5, Ovarian, 48 h
Experimental: as §1, §2

HCT-15 = experiment: NCI SRB cytotoxicity, Colon HCT-15; conditions: HCT-15, Colon, 48 h
Experimental: as §1, §2

TK-10 = experiment: NCI SRB cytotoxicity, Renal TK-10; conditions: TK-10, Renal, 48 h
Experimental: as §1, §2

NCI/ADR-RES = experiment: NCI SRB cytotoxicity, Breast NCI/ADR-RES; conditions: 48 h
Experimental: as §1, §2

SK-OV-3 = experiment: NCI SRB cytotoxicity, Ovarian SK-OV-3; conditions: SK-OV-3, Ovarian, 48 h
Experimental: as §1, §2

M14 = experiment: NCI SRB cytotoxicity, Melanoma M14; conditions: 48 h
Experimental: as §1, §2

HOP-62 = experiment: NCI SRB cytotoxicity, Non-small-cell lung HOP-62; conditions: HOP-62, Non-small-cell lung, 48 h
Experimental: as §1, §2

SN12C = experiment: NCI SRB cytotoxicity, Renal SN12C; conditions: 48 h
Experimental: as §1, §2

CAKI-1 = experiment: NCI SRB cytotoxicity, Renal CAKI-1; conditions: CAKI-1, Renal, 48 h
Experimental: as §1, §2

A498 = experiment: NCI SRB cytotoxicity, Renal A498; conditions: 48 h
Experimental: as §1, §2

SW-620 = experiment: NCI SRB cytotoxicity, Colon SW-620; conditions: SW-620, Colon, 48 h
Experimental: as §1, §2

SR = experiment: NCI SRB cytotoxicity, Leukemia SR; conditions: 48 h
Experimental: as §1, §2

LOXIMVI = experiment: NCI SRB cytotoxicity, Melanoma LOXIMVI; conditions: 48 h
Experimental: as §1, §2

Row | Compound | Log GI 50 (UACC-257) [mol/L] | Log GI 50 (KM-12) [mol/L] | Log LC 50 (KM-12) [mol/L] | Log LC 50 (MOLT-4) [mol/L] | Log GI 50 (A549/ATCC) [mol/L] | Log LC 50 (A549/ATCC) [mol/L] | Log LC 50 (UACC-62) [mol/L] | Log GI 50 (OVCAR-4) [mol/L] | Log LC 50 (OVCAR-4) [mol/L] | Log GI 50 (UO-31) [mol/L] | Log LC 50 (UO-31) [mol/L] | Log LC 50 (OVCAR-8) [mol/L] | Log GI 50 (OVCAR-5) [mol/L] | Log LC 50 (OVCAR-5) [mol/L] | Log GI 50 (HCT-15) [mol/L] | Log LC 50 (HCT-15) [mol/L] | Log LC 50 (TK-10) [mol/L] | Log GI 50 (NCI/ADR-RES) [mol/L] | Log LC 50 (NCI/ADR-RES) [mol/L] | Log GI 50 (M14) [mol/L] | further results
1 | COc1cc2c(cc1OCCN1CCN(CCOc3cc4c(cc3OC)C(=O)N3CCC[C@H]3C=N4)CC1)N=C[C@@H]1CCCN1C2=O [Compound VIa, 1,1′-{[(bisethane-1,N-diyl)piperazine]dioxy}bis[(11aS)-7-methoxy-1,2,3,11a-tetrahydro-5H-pyrrolo[2,1-c][1,4]benzodiazepin-5-one]] | −4.49 | −4.70 | −4.04 | −4.10 | −4.10 | −4.00 | −4.00 | −4.00 | −4.00 | −4.12 | −4.00 | −4.00 | −4.65 | −4.00 | −4.39 | −4.00 | −4.00 | −4.00 | −4.00 | −4.61 | Log LC 50 (UACC-257): −4.00 mol/L; Log GI 50 (MOLT-4): −5.68 mol/L; Log GI 50 (UACC-62): −4.83 mol/L; Log GI 50 (OVCAR-8): −4.58 mol/L; Log GI 50 (TK-10): −4.63 mol/L; Log GI 50 (SK-OV-3): −4.00 mol/L; Log LC 50 (SK-OV-3): −4.00 mol/L; Log GI 50 (HOP-62): −4.46 mol/L; Log LC 50 (HOP-62): −4.00 mol/L; Log GI 50 (SN12C): −4.90 mol/L; Log LC 50 (SN12C): −4.00 mol/L; Log GI 50 (CAKI-1): −5.04 mol/L; Log LC 50 (CAKI-1): −4.00 mol/L; Log GI 50 (A498): −4.29 mol/L; Log LC 50 (A498): −4.00 mol/L; Log GI 50 (SW-620): −4.68 mol/L; Log LC 50 (SW-620): −4.00 mol/L; Log GI 50 (SR): −6.68 mol/L; Log LC 50 (SR): −5.21 mol/L
2 | COc1cc2c(cc1OCCCN1CCN(CCCOc3cc4c(cc3OC)C(=O)N3CCC[C@H]3C=N4)CC1)N=C[C@@H]1CCCN1C2=O [Compound VIb, 1,1′-{[(bispropane-1,N-diyl)piperazine]dioxy}bis[(11aS)-7-methoxy-1,2,3,11a-tetrahydro-5H-pyrrolo[2,1-c][1,4]benzodiazepin-5-one]] | −4.45 | −4.64 | −4.00 | −4.08 | −4.37 | −4.00 | −4.00 | −4.13 | −4.00 | −4.27 | −4.00 | −4.00 | −5.06 | −4.00 | −4.25 | −4.00 | −4.00 | −4.00 | −4.00 | −5.55 | Log LC 50 (UACC-257): −4.00 mol/L; Log GI 50 (MOLT-4): −6.50 mol/L; Log GI 50 (UACC-62): −4.68 mol/L; Log GI 50 (OVCAR-8): −4.48 mol/L; Log GI 50 (TK-10): −5.10 mol/L; Log LC 50 (M14): −4.00 mol/L; Log GI 50 (HOP-62): −5.14 mol/L; Log LC 50 (HOP-62): −4.00 mol/L; Log GI 50 (SN12C): −4.44 mol/L; Log LC 50 (SN12C): −4.00 mol/L; Log GI 50 (CAKI-1): −4.65 mol/L; Log LC 50 (CAKI-1): −4.00 mol/L; Log GI 50 (A498): −5.73 mol/L; Log LC 50 (A498): −4.00 mol/L; Log GI 50 (SW-620): −6.23 mol/L; Log LC 50 (SW-620): −4.00 mol/L
3 | COc1cc2c(cc1OCCCCN1CCN(CCCCOc3cc4c(cc3OC)C(=O)N3CCC[C@H]3C=N4)CC1)N=C[C@@H]1CCCN1C2=O [Compound VIc, 1,1′-{[(bisbutane-1,N-diyl)piperazine]dioxy}bis[(11aS)-7-methoxy-1,2,3,11a-tetrahydro-5H-pyrrolo[2,1-c][1,4]benzodiazepin-5-one]] | −7.65 | −7.84 | −4.67 | −4.00 | −7.23 | −4.00 | −7.35 | −7.11 | −4.00 | −6.65 | −4.00 | −4.00 | −7.92 | −4.00 | −7.92 | −6.37 | −4.00 | −6.47 | −4.00 | −7.60 | Log GI 50 (TK-10): −7.69 mol/L; Log LC 50 (SK-OV-3): −4.00 mol/L; Log LC 50 (M14): −4.17 mol/L; Log LC 50 (HOP-62): −4.00 mol/L; Log LC 50 (SN12C): −4.00 mol/L; Log LC 50 (CAKI-1): −4.28 mol/L; Log GI 50 (A498): −6.89 mol/L; Log LC 50 (SR): −5.62 mol/L
4 | COc1cc2c(cc1OCCCCCN1CCN(CCCCCOc3cc4c(cc3OC)C(=O)N3CCC[C@H]3C=N4)CC1)N=C[C@@H]1CCCN1C2=O [Compound VId] | −4.75 | −5.25 | −4.00 | −4.00 | −4.66 | −4.00 | −4.00 | −5.38 | −4.00 | −4.00 | −4.00 | −4.00 | −5.33 | −4.00 | −4.25 | −4.00 | −4.00 | −4.00 | −4.00 | −4.76 | Log LC 50 (UACC-257): −4.00 mol/L; Log GI 50 (MOLT-4): −4.79 mol/L; Log GI 50 (UACC-62): −5.64 mol/L; Log GI 50 (OVCAR-8): −4.67 mol/L; Log GI 50 (LOXIMVI): −5.61 mol/L; Log LC 50 (LOXIMVI): −4.00 mol/L; Log GI 50 (HOP-62): −4.00 mol/L; Log LC 50 (HOP-62): −4.00 mol/L; Log GI 50 (SN12C): −5.66 mol/L; Log LC 50 (SN12C): −4.00 mol/L; Log GI 50 (CAKI-1): −5.77 mol/L; Log LC 50 (CAKI-1): −4.00 mol/L; Log GI 50 (A498): −5.00 mol/L; Log LC 50 (A498): −4.00 mol/L; Log GI 50 (SW-620): −5.49 mol/L; Log LC 50 (SW-620): −4.00 mol/L; Log GI 50 (SR): −5.37 mol/L; Log LC 50 (SR): −4.00 mol/L

Reference: patent publication US7015215B2, “Pyrrolo[2,1-c][1,4] benzodiazepines compounds and process thereof” (Council of Scientific and Industrial Research, priority 2003, dated 2006)
